# Reference: patent US20050238734A1, “Detection of nitrosylated proteins” (University of Vermont and State Agricultural College, priority 2004, published 2005)
# Assays:
# IKKβ [1] = target: T1, IKKβ (Homo sapiens, UniProt O14920); assay: SNO content of immunopurified IKKβ by chemiluminescence; format: cell-based; conditions: Jurkat T cells exposed to L-CSNO and TNFα
# T1 construct: IKKβ was immunopurified from TNFα-stimulated Jurkat T cells treated with SNO; endogenous in cells; host or cells: Jurkat T cells
# T1 sequence (O14920 1-756): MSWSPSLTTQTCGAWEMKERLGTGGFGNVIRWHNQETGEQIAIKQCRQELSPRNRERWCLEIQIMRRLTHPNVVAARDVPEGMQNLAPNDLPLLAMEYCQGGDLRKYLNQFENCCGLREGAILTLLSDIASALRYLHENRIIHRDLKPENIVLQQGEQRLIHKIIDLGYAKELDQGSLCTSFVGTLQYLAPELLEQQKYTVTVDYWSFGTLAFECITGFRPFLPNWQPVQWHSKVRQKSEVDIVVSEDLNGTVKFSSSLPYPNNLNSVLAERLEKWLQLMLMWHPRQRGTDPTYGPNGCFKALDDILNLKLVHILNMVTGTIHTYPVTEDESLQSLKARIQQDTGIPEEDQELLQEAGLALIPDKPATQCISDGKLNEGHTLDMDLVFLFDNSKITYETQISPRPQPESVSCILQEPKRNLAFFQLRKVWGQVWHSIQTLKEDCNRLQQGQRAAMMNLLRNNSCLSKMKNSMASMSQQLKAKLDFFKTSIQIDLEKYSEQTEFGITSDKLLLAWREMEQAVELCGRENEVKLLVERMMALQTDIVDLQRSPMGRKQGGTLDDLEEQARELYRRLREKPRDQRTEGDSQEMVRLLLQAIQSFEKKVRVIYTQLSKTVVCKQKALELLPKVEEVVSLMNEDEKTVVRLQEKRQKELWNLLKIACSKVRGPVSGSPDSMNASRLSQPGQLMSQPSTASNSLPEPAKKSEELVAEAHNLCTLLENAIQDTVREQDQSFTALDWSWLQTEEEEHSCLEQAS
# Description: The total cellular SNO concentration (protein-bound plus free) was measured in lysates of cells treated with SNO in presence or absence of L-or D-cys. After 3 washes with PBS, the cells were lysed in the same buffer as was used for the biotin switch method. […] The amount of NO released from samples was estimated from a standard curve generated by injection of L-CSNO stock solutions. IKKβ was immunoprecipitated from Jurkat T cell lysates, using a monoclonal IKKβ antibody and protein G-agarose beads. After washing the immunoprecipitates 3 times with HEN buffer containing 50 mM NaCl to minimize co-associating proteins, the antigen-antibody complexes were removed from the beads by three 10 min incubations in 50 μl of 100 mM glycine pH 3.0 at 4° C. The eluates were treated with 0.6% sulfanilamide prior to the assessment of the SNO content via chemiluminescence, as described before. As a control, some lysates or immunoprecipitates were treated with 4.4 mM HgCl2 for 10 min at RT, followed by 20 min incubation at 4° C., and 10 min incubation with sulfanilamide at RT. To confirm that IKKβ was the predominant protein immunoprecipitated under these conditions, Laemmli sample buffer was added to the immunoprecipitate, samples were boiled, and evaluated on a silver-stained gel. All experiments were repeated at least two times and similar results were obtained. […]
# IKKβ [2] = target: T1, IKKβ; assay: Biotin derivatization (biotin switch) of IKKβ in Jurkat T cells; format: cell-based
# Description: The detection of S-nitrosylated proteins was performed via a biotin switch method as follows. Following treatments, the cells were rinsed 2 times with PBS containing 0.1 mM EDTA and 0.01 mM neocuproine and lysed in HEN buffer (25 mM HEPES, pH 7.7, 0.1 mM EDTA, 0.01 mM neocuproine) containing 0.5% CHAPS, 0.1% SDS and 20 mM N-ethylmaleimide (NEM) at 4° C. for 30 min in order to block free thiols. The lysates were cleared by centrifugation at 14,000 g, 4° C. for 10 min and excess NEM was removed by protein precipitation using cold acetone. The protein pellets were resuspended in HENS buffer (HEN 1% SDS), and the SNO bonds were decomposed by adding 20 mM sodium ascorbate. The resulting free thiols were reacted with 0.05 mM sulfhydryl-specific biotinylating agent, N-(3-malemidylpropionyl)biocytin (MPB, Molecular Probes) for 30 min at room temperature, resulting in biotinylation of SNO. […] Biotinylated IKKβ was detected on the membrane using horseradish peroxidase-linked streptavidin. […]
# A biotin derivatization method was also used to assess whether the IKKβ subunit is directly targeted by S-nitrosylation. […] IKKβ was subsequently immunoprecipitated from the lysates and its biotinylation was assessed using streptavidin-HRP on a western blot. […]
# wt HA-IKKβ = target: T2, wt HA-IKKβ (Homo sapiens, UniProt O14920); assay: TNFα-stimulated kinase activity of transfected wt HA-IKKβ in C10 cells; format: cell-based; conditions: TNFα-stimulated enzymatic activity
# T2 construct: expressed in transfected cells; host or cells: C10 mouse lung epithelial cells; plasmid a gift of Dr. Michael Karin
# T2 sequence (O14920 1-756): T1 sequence (O14920 1-756)
# Description: The cells were exposed to test agents and at indicated times, transferred to ice, washed twice with cold PBS, and lysed in buffer containing 50 mM HEPES, 150 mM NaCl, 1 mM EDTA, 2 mM MgCl2, 10 mM Na3VO4, 1 mM phenylmethylsulfonyl fluoride, 0.1% Nonidet P-40, 10 μg/ml leupeptin, 1% aprotinin, 250 μM DTT and 100 μM NaF. The lysates were cleared by centrifugation at 14,000 rpm, 4° C. for 10 min. Protein concentrations were determined and the IKK complex was immunoprecipitated with an IKKγ antibody (Santa Cruz) at 4° C. for 1.5 h using protein G agarose beads. The precipitates were washed once with lysis buffer and twice with kinase buffer (20 mM HEPES, 20 mM β-glycerolphosphate, 1 mM MnCl2, 5 mM MgCl2, 2 mM NaF and 250 μM DTT). The kinase reaction was performed using 1 μg glutathione-S transferase (GST)-IκBα as a substrate, provided by Dr. Rosa Ten (Mayo Clinic, Rochester, Minn.), and 5 μCi γ^32P-adenosine triphosphate at 30° C. for 30 min. Kinase assays were performed in presence of 250 μM DTT, the minimal concentration necessary in order to maintain maximal TNFα-stimulated activity. The reactions were stopped by the addition of 2× Laemmli sample buffer. […] In separate experiments, the immunoprecipitated IKK complex or JNK1 from TNFα-stimulated cells was exposed to SNAP or GSNO for 15 min in lysis buffer in vitro prior to assessment of kinase activity. […]
# C10 cells = assay: In situ detection of S-nitrosylated proteins in intact cells (biotin derivatization, streptavidin-FITC, confocal microscopy); format: cell-based, mouse
# Description: A line of spontaneously transformed mouse lung alveolar type II epithelial cells (C10) was used in some experiments, as described below. C10 cells were cultured in CMRL1066 medium containing 10% fetal bovine serum (FBS, GIBCO). In experiments involving microscopic analysis, the cells were grown on glass cover slips. At about one hour prior to exposure to a test agent, the medium was switched to phenol red free DMEM/F12 containing 0.5% FBS. Some cells were exposed to S-nitroso-glutathione (GSNO) or S-nitroso-N-acetyl penicillamine (SNAP) for about 1 hour, in the presence of an equimolar concentration of freshly prepared L-cysteine. To monitor S-nitrosylation in response to NOS2 activation, the cells were treated with 10 ng/ml TNF alpha (TNFα) and 100 U/ml interferon gamma (IFNγ), for about 24 hours. Incubation with L-N-monomethyl arginine (L-NMMA) for about 16 hours was used to inhibit endogenous NO production and D-NMMA (D-N-monomethyl arginine) was used as a control. Nuclear export was blocked by leptomycin B (5 ng/ml, exposure for about 12 hours). All experiments were performed in duplicate and were repeated at least three times.
# To evaluate the localization of S-nitrosylated proteins in intact cells, the biotin derivatization method described above was used in combination with fluorophore labeling and visualized using confocal microscopy. Cells grown on cover slips were rinsed with PBS containing 0.1 mM EDTA and 0.01 mM neocuproine, and fixed in 4% PFA (paraformaldehyde) for 20 minutes at RT. The cells were permeabilized, and protein SH groups were blocked using HEN buffer containing 2.5% SDS, 0.5% CHAPS, and 20 mM MMTS (methylmethanethiosulfonate) for 20 min at 55° C. with constant shaking. After removal of MMTS, the cells were incubated with 1 mM sodium ascorbate and 0.4 mM biotin-HPDP (N-[6-(biotinamido)hexyl]-3′-(2′-pyridyldithio)propionamide) for about an hour at RT, and the cover slips were then incubated overnight with streptavidin-FITC at 4° C. Blocking was performed using 20 mM NEM for 30 minutes at 4° C., followed by incubation with 0.05 mM MPB and 1 mM sodium ascorbate for 1 hour at RT. The nuclei were stained with 10 microgram/ml PI (propidium iodide) for 30 minutes at RT. The cells were analyzed by confocal microscopy (magnification 40×) using an Olympus BX50 microscope coupled to a Bio-Rad (Hercules Calif.) MRC 1024 confocal scanning laser microscope system. Control experiments were also performed in which blocking of SH groups was omitted, or in which 100 micromolar HgCl2 was added prior to blocking of SH groups with MMTS or NEM. To assess the contribution of endogenous biotinylated proteins, the biotin-label was omitted in some control cover slips. All manipulations were performed in the dark. […]
# RelA (p65) = RelA (p65) immunostaining, cytoplasmic versus nuclear localization; format: cell-based, mouse
# Description: FIGS. 4G and 4H illustrates an assessment of the presence of cytoplasmic protein. C10 cells were mock-treated (sham) (FIG. 4G) or stimulated with TNF alpha for 30 minutes, and submitted to the biotinylation protocols similar to those described above with respect to FIG. 1. RelA (p65) was detected using specific antibodies (Santa Cruz).
# FIGS. 6A and 6C illustrate cells that were incubated with leptomycin B (5 ng/ml) for about 12 hours, followed by biotin derivatization, incubation with streptavidin-FITC, and analysis by confocal microscopy. […] These findings thus support the notion that S-nitrosylation occurs in proteins that are regulated by nuclear trafficking.
# To ensure that the cytoplasmic targets were still present after this procedure, the presence of RelA was evaluated in sham or TNF alpha-treated cells. RelA, a subunit of the transcription factor, nuclear factor kappa B, is normally present in the cytoplasm and is translocated into the nucleus upon exposure to TNF alpha. […] In fact, increased S-nitrosylation of cytoplasmic proteins was observed after induction of NOS2 activity.
molecule,measurement,setting,value
N[C@@H](CSN=O)C(=O)O [L-CSNO],SNO content of IKKβ,IKKβ [1],marked increase
same,S-nitrosylation of IKKβ (biotinylation),IKKβ [2],increase
same,activity of wt HA-IKKβ,wt HA-IKKβ,inhibited
"CC(=O)N[C@H](C(=O)O)C(C)(C)SN=O [SNAP, S-nitroso-N-acetyl penicillamine]",biotinylation (S-nitrosylated proteins) in intact cells,"C10 cells; 1 mM, 1 hour",enhanced
TNF alpha,S-nitrosylation of IKKβ (biotinylation),IKKβ [2],decreased
same,RelA presence in nucleus,"RelA (p65); 30 minutes, dual staining with PI",enhanced nuclear presence
CCC(=C/[C@H](C)C/C=C/C(C)=C/[C@@H](C)C(=O)[C@@H](C)[C@H](O)[C@@H](C)C/C(C)=C/C(=O)O)/C=C/[C@@H]1OC(=O)C=C[C@@H]1C [leptomycin B],biotinylation in the nuclear compartment,"C10 cells; 5 ng/ml, about 12 hours",enhanced
same,nuclear sequestration of RelA,"RelA (p65); 5 ng/ml, about 12 hours",enhanced
"OO [H2O2, hydrogen peroxide]",staining pattern (biotinylation),"C10 cells; 500 micromolar, 15 minutes",failed to alter
